Experimental data taken from patent US20250296971A1, “GASTRIC INHIBITORY PEPTIDE RECEPTOR LIGANDS” (priority 2021, published 2025).
Like-named read-outs stand apart in the source and are kept apart here. *1 amine or outer side, *2 acyl side, *3 side chain or, on linkers, in order; H or OH if unused. Where a SMILES comes first, the peptide text is derived from it. Bridges are numbered along the chain shown (N, C = ends). Side-chain parts run from the residue outwards. [ ]: non-standard residue; d: D form. The star is where a group is joined. X3 = O=C(O)CN1CCN(CC(=O)O)CCN(CC(=O)NCCCOCCOCCOCCCN*)CCN(CC(=O)O)CC1; NH(1-deoxy-D-glucityl) = OC[C@@H](O)[C@@H](O)[C@H](O)[C@@H](O)CN*; Pro(trans-4-NH2) = O=C([C@@H]1C[C@@H](N[*:3])CN1[*:1])[*:2]; DOTA = O=C(O)CN1CCN(CC(=O)O)CCN(CC(=O)*)CCN(CC(=O)O)CC1; X9 = O=C(O)CN1CCN(CC(=O)O)CCN([C@H](CCC(=O)*)C(=O)O)CC1; Trp(5-Cl) = N[C@@H](Cc1c[nH]c2ccc(Cl)cc12)C(=O)O; Phe(3,4-Cl2) = N[C@@H](Cc1ccc(Cl)c(Cl)c1)C(=O)O; Phe(3,5-Cl2) = N[C@@H](Cc1cc(Cl)cc(Cl)c1)C(=O)O; Pyridine(2,6-diCH2) = c1cc(C[*:1])nc(C[*:2])c1; Oic = O=C(O)[C@@H]1C[C@@H]2CCCC[C@@H]2N1; Pro(4R-NH2) = N[C@H]1CN[C@H](C(=O)O)C1; 1Nal = N[C@@H](Cc1cccc2ccccc12)C(=O)O; mXylylene = c1cc(C[*:1])cc(C[*:2])c1; Glutaryl = O=C(CCCC(=O)[*:2])[*:1]; Hyp = O=C(O)[C@@H]1C[C@@H](O)CN1; X1 = O=C(CN1CCC(N[*:1])CC1)[*:2]; Pen = CC(C)(S)[C@H](N)C(=O)O; Suc = O=C(CCC(=O)[*:2])[*:1]; hLeu = CC(C)CC[C@H](N)C(=O)O; Api = NC1(C(=O)O)CCNCC1; Thp = NC1(C(=O)O)CCOCC1; AEEA = NCCOCCOCC(=O)O; Aib = CC(C)(N)C(=O)O

Biological target: T1, GIPR (CHO-K1-hGIPR cells) (Homo sapiens, UniProt P48546)
T1 construct: host or cells: CHO-K1
T1 sequence (P48546 22-466): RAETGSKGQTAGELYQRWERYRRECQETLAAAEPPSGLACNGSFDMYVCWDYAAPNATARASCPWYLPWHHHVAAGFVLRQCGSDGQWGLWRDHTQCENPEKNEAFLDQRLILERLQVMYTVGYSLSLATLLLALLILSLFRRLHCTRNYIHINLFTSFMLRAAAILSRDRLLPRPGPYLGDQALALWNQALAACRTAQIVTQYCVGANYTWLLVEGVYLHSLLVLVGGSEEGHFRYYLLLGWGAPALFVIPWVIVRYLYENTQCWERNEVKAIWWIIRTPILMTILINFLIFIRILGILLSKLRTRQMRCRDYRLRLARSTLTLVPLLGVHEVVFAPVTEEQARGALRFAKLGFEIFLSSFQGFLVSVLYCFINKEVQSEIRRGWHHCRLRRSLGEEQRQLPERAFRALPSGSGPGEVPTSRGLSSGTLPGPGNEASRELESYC
Assay: FACS binding assay
Conditions: read-out: pIC50 Category (converted)
In short: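 Steps: detach CHO-K1-hGIPR cells (Accutase); wash in PBS/1% FCS; adjust to 500.000 cells per mL; wash ice-cold; incubate APC-streptavidin 1 μg/mL, 30 min on ice; wash twice; acquire on flow cytometer; fit MFI-concentration data with a four-parameter logistic model.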

[1] = competition with 20 nM GIP-057, 4° C., 1 hour
[2] = competition with 20 nM GIP-057, 4° C. for 1 hour

| Compound | IC50 [1] [nM] | IC50 [2] [nM] |
| --- | --- | --- |
| CC[C@H](C)[C@@H]1NC(=O)[C@H](CC(C)C)NC(=O)C(C)(C)NC(=O)[C@@H](NC(=O)[C@H](CC(C)C)NC(=O)[C@H](CCC(=O)O)NC(=O)[C@@H]2CCCN2C(=O)[C@H](Cc2c[nH]c3ccccc23)NC(=O)[C@H](Cc2c[nH]c3ccccc23)NC(=O)[C@H](CC(=O)O)NC(C)=O)CSCc2cccc(c2)CSC(C)(C)[C@@H](C(N)=O)NC1=O [GIP-339, Ac-Asp-Trp-Trp-Pro-Glu-Leu-[Cys(3MeBn)-Aib-Leu-Ile-Pen]-NH2] (Ac-DWWPELC[Aib]LI[Pen]-NH2; linker 7-11 via mXylylene) |  | > 1000 |
| CC(=O)N[C@@H](CC(=O)O)C(=O)N[C@@H](Cc1c[nH]c2ccccc12)C(=O)N[C@@H](Cc1c[nH]c2ccc(Cl)cc12)C(=O)N1C[C@H](O)C[C@H]1C(=O)N[C@@H](CCC(=O)O)C(=O)N[C@H](CC(C)C)C(=O)N[C@H]1CSCc2cccc(n2)CSC[C@@H](C(N)=O)NC(=O)[C@H](Cc2c[nH]c3ccccc23)NC(=O)[C@H](CC(C)C)NC(=O)C2(CCOCC2)NC1=O [GIP-355, Ac-Asp-Trp-5Clw-Hyp-Glu-leu-[Cys(2Lut)-Thp-Leu-Trp-Cys]-NH2] (Ac-DW[Trp(5-Cl)][Hyp]E[dL]C[Thp]LWC-NH2; linker 7-11 via Pyridine(2,6-diCH2)) |  | > 1000 |
| CC[C@H](C)[C@@H]1NC(=O)[C@H](CC(C)C)NC(=O)[C@H](C)NC(=O)[C@@H](NC(=O)[C@H](CC(C)C)NC(=O)[C@H](CCC(=O)O)NC(=O)[C@H](C)NC(=O)[C@H](Cc2c[nH]c3ccccc23)NC(=O)[C@H](Cc2c[nH]c3ccccc23)NC(=O)[C@H](CC(=O)O)NC(=O)[C@H](Cc2ccc(O)cc2)NC(=O)[C@@H](N)CCSC)CSCc2cccc(c2)CSC[C@@H](C(N)=O)NC1=O [GIP-311] (H-MYDWWAELCALIC-NH2; linker 9-13 via mXylylene) |  | 100 to 794 |
| CC[C@H](C)[C@@H]1NC(=O)[C@H](CC(C)C)NC(=O)C2(CCN(C(=O)CNC(=O)CC[C@H](C(=O)O)N3CCN(CC(=O)O)CCN(CC(=O)O)CC3)CC2)NC(=O)[C@@H](NC(=O)[C@@H](CC(C)C)NC(=O)[C@H](CCC(=O)O)NC(=O)[C@@H]2C[C@@H](N)CN2C(=O)[C@H](Cc2c[nH]c3ccc(Cl)cc23)NC(=O)[C@H](Cc2c[nH]c3ccccc23)NC(=O)[C@H](CC(=O)O)NC(=O)CCCC(=O)NC[C@H](O)[C@@H](O)[C@H](O)[C@H](O)CO)CSCc2cccc(n2)CSC[C@@H](C(=O)NC2CCN(CC(=O)N[C@H](CCC(=O)NC[C@H](O)[C@@H](O)[C@H](O)[C@H](O)CO)C(N)=O)CC2)NC1=O [GIP-031, AGLU-Glutar-Asp-Trp-5Clw-Tap-Glu-leu-[Cys(2Lut)-Apc(NODAGA-Gly)-Leu-Ile-Cys]-APAc-glu(AGLU)-NH2] ({NH(1-deoxy-D-glucityl)-Glutaryl}-DW[Trp(5-Cl)][Pro(4R-NH2)]E[dL]C[Api]([Gly-X9])LIC[X1][dE](NH(1-deoxy-D-glucityl))-NH2; linker 7-11 via Pyridine(2,6-diCH2)) | < 10 |  |
| CC[C@H](C)[C@@H]1NC(=O)[C@H](CC(C)C)NC(=O)C(C)(C)NC(=O)[C@@H](NC(=O)[C@H](CCC(C)C)NC(=O)[C@H](CCC(=O)O)NC(=O)[C@@H]2C[C@@H](NC(=O)CN3CCN(CC(=O)O)CCN(CC(=O)O)CCN(CC(=O)O)CC3)CN2C(=O)[C@H](Cc2cccc3ccccc23)NC(=O)[C@H](Cc2c[nH]c3ccccc23)NC(=O)[C@H](CC(=O)O)NC(C)=O)CSCc2cccc(c2)CSC[C@@H](C(N)=O)NC1=O [GIP-394, Ac-Asp-Trp-1Ni-Tap(DOTA)-Glu-Hle-[Cys(3MeBn)-Aib-Leu-Ile-Cys]-NH2] (Ac-DW[1Nal][Pro(trans-4-NH2)](DOTA)E[hLeu]C[Aib]LIC-NH2; linker 7-11 via mXylylene) |  | 10 to 79.4 |

Second part, the compound after the results:

| IC50 [1] [nM] | IC50 [2] [nM] | Compound |
| --- | --- | --- |
| < 10 |  | CC[C@H](C)[C@@H]1NC(=O)[C@H](CC(C)C)NC(=O)[C@H](CCCCNC(=O)CN2CCN(CC(=O)O)CCN(CC(=O)O)CCN(CC(=O)O)CC2)NC(=O)[C@@H](NC(=O)[C@@H](CC(C)C)NC(=O)[C@H](CCC(=O)O)NC(=O)[C@@H]2C[C@@H](N)CN2C(=O)[C@H](Cc2c[nH]c3ccc(Cl)cc23)NC(=O)[C@H](Cc2c[nH]c3ccccc23)NC(=O)[C@H](CC(=O)O)NC(=O)CCCC(=O)NC[C@H](O)[C@@H](O)[C@H](O)[C@H](O)CO)CSCc2cccc(n2)CSC[C@@H](C(=O)NC2CCN(CC(=O)N[C@H](CCC(=O)NC[C@H](O)[C@@H](O)[C@H](O)[C@H](O)CO)C(N)=O)CC2)NC1=O [GIP-024, AGLU-Glutar-Asp-Trp-5Clw-Tap-Glu-leu-[Cys(2Lut)-Lys(DOTA)-Leu-Ile-Cys]-APAc-glu(AGLU)-NH2] ({NH(1-deoxy-D-glucityl)-Glutaryl}-DW[Trp(5-Cl)][Pro(4R-NH2)]E[dL]CK(DOTA)LIC[X1][dE](NH(1-deoxy-D-glucityl))-NH2; linker 7-11 via Pyridine(2,6-diCH2)) |
|  | > 1000 | CC[C@H](C)[C@@H]1NC(=O)[C@H](CC(C)C)NC(=O)C2(CCOCC2)NC(=O)[C@@H](NC(=O)[C@@H](CC(C)C)NC(=O)[C@H](CCC(=O)O)NC(=O)[C@@H]2C[C@@H]3CCCC[C@@H]3N2C(=O)[C@H](Cc2ccc(Cl)c(Cl)c2)NC(=O)[C@H](Cc2ccc(Cl)c(Cl)c2)NC(=O)[C@H](CC(=O)O)NC(C)=O)CSCc2cccc(n2)CSC[C@@H](C(N)=O)NC1=O [GIP-356, Ac-Asp-Eaa-Eaa-Oic-Glu-leu-[Cys(2Lut)-Thp-Leu-Ile-Cys]-NH2] (Ac-D[Phe(3,4-Cl2)][Phe(3,4-Cl2)][Oic]E[dL]C[Thp]LIC-NH2; linker 7-11 via Pyridine(2,6-diCH2)) |
| < 10 |  | CC[C@H](C)[C@@H]1NC(=O)[C@H](CC(C)C)NC(=O)C2(CCN(C(=O)CCCC(=O)NC[C@H](O)[C@@H](O)[C@H](O)[C@H](O)CO)CC2)NC(=O)[C@@H](NC(=O)[C@@H](CC(C)C)NC(=O)[C@H](CCC(=O)O)NC(=O)[C@@H]2C[C@@H](N)CN2C(=O)[C@H](Cc2c[nH]c3ccc(Cl)cc23)NC(=O)[C@H](Cc2c[nH]c3ccccc23)NC(=O)[C@H](CC(=O)O)NC(=O)[C@@H](CCC(=O)NC[C@H](O)[C@@H](O)[C@H](O)[C@H](O)CO)NC(=O)COCCOCCNC(=O)CN2CCN(CC(=O)O)CCN(CC(=O)O)CCN(CC(=O)O)CC2)CSCc2cccc(n2)CSC[C@@H](C(=O)NC2CCN(CC(=O)N[C@H](CCC(=O)NC[C@H](O)[C@@H](O)[C@H](O)[C@H](O)CO)C(N)=O)CC2)NC1=O [GIP-044, DOTA-02Oc-glu(AGLU)-Asp-Trp-5Clw-Tap-Glu-leu-[Cys(2Lut)-Apc(AGLU-Glutar)-Leu-Ile-Cys]-APAc-glu(AGLU)-NH2] ({DOTA-AEEA}-[dE](NH(1-deoxy-D-glucityl))DW[Trp(5-Cl)][Pro(4R-NH2)]E[dL]C[Api]([Glutaryl-NH(1-deoxy-D-glucityl)])LIC[X1][dE](NH(1-deoxy-D-glucityl))-NH2; linker 8-12 via Pyridine(2,6-diCH2)) |
|  | 100 to 794 | CC[C@H](C)[C@@H]1NC(=O)[C@H](CC(C)C)NC(=O)[C@H](C)NC(=O)[C@@H](NC(=O)[C@H](CC(C)C)NC(=O)[C@H](CCC(=O)O)NC(=O)[C@@H]2CCCN2C(=O)[C@H](Cc2c[nH]c3ccccc23)NC(=O)[C@H](Cc2c[nH]c3ccccc23)NC(=O)[C@H](CC(=O)O)NC(=O)[C@H](Cc2ccc(O)cc2)NC(=O)[C@@H](N)CCSC)CSCc2cccc(c2)CSC[C@H](C(N)=O)NC1=O [GIP-310] (H-MYDWWPELCALI[dC]-NH2; linker 9-13 via mXylylene) |
|  | 10 to 79.4 | CC[C@H](C)[C@@H]1NC(=O)[C@H](CC(C)C)NC(=O)C2(CCOCC2)NC(=O)[C@@H](NC(=O)[C@@H](CC(C)C)NC(=O)[C@H](CCC(=O)O)NC(=O)[C@@H]2C[C@@H](O)CN2C(=O)[C@H](Cc2cc(Cl)cc(Cl)c2)NC(=O)[C@H](Cc2c[nH]c3ccccc23)NC(=O)[C@H](CC(=O)O)NC(=O)CCC(=O)NCCCOCCOCCOCCCNC(=O)CN2CCN(CC(=O)O)CCN(CC(=O)O)CCN(CC(=O)O)CC2)CSCc2cccc(n2)CSC[C@@H](C(N)=O)NC1=O [GIP-401, DOTA-Ttds-Asp-Trp-Egn-Hyp-Glu-leu-[Cys(2Lut)-Thp-Leu-Ile-Cys]-NH2] ({X3-Suc}-DW[Phe(3,5-Cl2)][Hyp]E[dL]C[Thp]LIC-NH2; linker 7-11 via Pyridine(2,6-diCH2)) |
|  | 10 to 79.4 | CC(=O)N[C@@H](CC(=O)O)C(=O)N[C@@H](Cc1c[nH]c2ccccc12)C(=O)N[C@@H](Cc1c[nH]c2ccc(Cl)cc12)C(=O)N1C[C@H](O)C[C@H]1C(=O)N[C@@H](CCC(=O)O)C(=O)N[C@H](CC(C)C)C(=O)N[C@H]1CSCc2cccc(n2)CSC[C@@H](C(N)=O)NC(=O)[C@H](Cc2ccccc2)NC(=O)[C@H](CC(C)C)NC(=O)C2(CCOCC2)NC1=O [GIP-266, Ac-Asp-Trp-5Clw-Hyp-Glu-leu-[Cys(2Lut)-Thp-Leu-Phe-Cys]-NH2] (Ac-DW[Trp(5-Cl)][Hyp]E[dL]C[Thp]LFC-NH2; linker 7-11 via Pyridine(2,6-diCH2)) |
